Measurements from PMC10901950, “Neuroprotective and Anti-inflammatory Effects of Rubiscolin-6 Analogs with Proline Surrogates in Position 2” (Neurochemical Research, 2023).

Columns and labels:
Caspase-3 = Caspase-3 activity in 6-OHDA-treated SH-SY5Y cells; type: cell-based, human; details: STAU 1 µM, positive control
Procedure: Caspase-3 activity was assessed using “Caspase-3 fluorometric assay” (Sigma, St. Louis, MO, USA) with minor changes adapted by Silva et al.. The cells were treated with 6-OHDA (100 µM) for 6 h in the presence or absence of peptides. After this period, the culture medium was removed, and cells were rinsed with ice-cold PBS and collected by centrifugation at 3300×g for 5 min. The pellets were resuspended in lysis buffer, incubated for about 20 min on ice and finally centrifuged at 22,500×g, 4 °C, for 20 min. Cell lysates were processed following the manufacturer’s protocol, and fluorescence was read at wavelengths of 360 nm (excitation) and 460 nm (emission). Caspase-3 activity was calculated through the curve slope and presented as Δ fluorescence (a.u.)/mg of protein/min). Staurosporine (STAU, 1 µM) was used as positive control.

[1] = test system: LPS-stimulated RAW 264.7 cells; assay: Nitric oxide production in LPS-stimulated RAW 264.7 cells (Griess); type: cell-based, mouse; details: LPS 1 µg/mL
Procedure: The level of NO production was determined in RAW 264.7 cells. Briefly, after cells attachment, they were treated with LPS (Millipore Sigma, Darmstadt, Germany) at 1 µg/mL for 24 h, and then the peptides were added for an additional 24 h. After cells’ treatment, the medium was collected, and the accumulation of NO metabolite in the cell culture supernatant was measured using Griess reagent (1% sulfanilamide and 0.1% naphthylethylenediamine dihydrochloride; Sigma Aldrich), where 50 µL of the supernatant was mixed with 50 µL of Griess reagent (40 mg/mL) in a 96-well plate. After incubation at room temperature and darkness for 10 min, the absorbance was measured at 540 nm. Cells treated with LPS without samples were used as the positive control of the inflammatory response.

[2] = test system: LPS-stimulated RAW 264.7 cells; assay: Intracellular ROS formation in LPS-stimulated RAW 264.7 cells; type: cell-based, mouse; details: LPS 1 µg/mL
Procedure: The cytotoxic and anti-inflammatory effects of peptides on RAW 264.7 cells were estimated using MTT assay. Cells were incubated with peptides (0.1–10 µM) for 24 h to assess their cytoprotective activity. In the anti-inflammatory model, RAW 264.7 cells were exposed to LPS (Millipore Sigma, Darmstadt, Germany) at 1 µg/mL in the absence/presence of peptide at non-toxic concentrations (0.1–10 µM). Then, the MTT reagent was added to wells, and cells were incubated for 1.5 h at 37 °C. After this time, MTT was removed, 100 µL DMSO was added, and the resulting absorbance was read in a microplate reader (Synergy 2 BioTek Microplate Reader, Winooski, VT, USA) at 570 nm.
(§1) The detection of ROS generated in injured cells was evaluated using the 5(6)-carboxy-2ʹ,7ʹ-dichlorofluorescein diacetate (carboxy-H2DCFDA) reagent (Invitrogen, Bleiswijk, Netherlands). After incubation, cells were washed with ice-cold Phosphate-Buffer Saline (PBS). Then, the carboxyl-H2DCFDA (100 µL, 20 µM) reagent was added and incubated for 1 h at 37 °C. Finally, the fluorescence intensity was measured at wavelengths of […], and ROS levels were presented in percentage of control (non-treated cells).

SH-SY5Y cells [3] = assay: Neuroprotection in 6-OHDA-treated SH-SY5Y cells (MTT); type: cell-based, human; details: 6-OHDA 100 µM, 24 h, vehicle 100.00 ± 4.60%
Procedure: The neuroprotective experiments were performed in an in vitro model of a human neuroblastoma cell line (SH-SY5Y) obtained from the German Collection of Microorganisms and Cell Cultures GmbH (DSMZ) Bank (ACC 209). Cells were cultured in Dulbecco’s Modified Eagle’s Medium: Nutrient Mixture F12 (DMEM:F12) supplemented with 1% antibiotic/antimycotic (Amphotericin B, Penicillin and Streptomycin) (Biowest, Nuaillé, France) and 10% (v/v) Fetal Bovine Serum (FBS) (Biowest, Riverside, MO, USA). The anti-inflammatory experiments were performed in an in vitro model of mouse macrophage-like RAW 264.7 cells, purchased from American Type Culture Collection (ATCC, Manassas, VA, USA). Cells were maintained in DMEM medium (Gibco™, Grand Island, NY) and supplemented with 10% bovine calf serum (BCS) (Gibco™, Grand Island, NY) and 1% penicillin–streptomycin (Sigma-Aldrich, St. Louis, MO, USA). Cell cultures were kept at 37 °C in 5% CO2/humidified air.
Cells were incubated with peptides (0.1–10 µM) for 24 h to assess their cytotoxic activity. In the neuroprotective model, SH-SY5Y cells were exposed to 6-OHDA (100 µM) in the absence/presence of peptide at non-toxic concentrations (0.1–10 µM). When needed, a 30 min pre-incubation step with β-funaltrexamine (β-FNA, µ-opioid receptor antagonist, 10 µM), naltrindole (NLT, δ-opioid receptor antagonist, 10 µM), 2’-amino-3’-methoxyflavone (PD 98059, MAPK kinase 1 (MEK 1) inhibitor, 50 µM) or 2-(4-morpholinyl)-8-phenyl-4H-1-benzopyran-4-one (LY 294002, PI3-K inhibitor, 20 µM). Stimulation was terminated by aspiration of the medium and adding 100 µL MTT (1.2 mM) per well. Cells were incubated for 1 h at 37 °C. After this time, MTT was removed, and 100 µL DMSO was added. The resulting absorbance was read in a microplate reader (Biotek, Epoch/2 microplate reader, Winooski, VT, USA) at 570 nm.
Cell metabolic activity (cytotoxicity) was calculated as the percentage of the value obtained for cells incubated with compounds compared to control cells treated with the medium.

AKT = assay: Western blot, AKT phosphorylation in 6-OHDA-treated SH-SY5Y cells; type: cell-based, human; details: peptide 10 µM, 2.5-10 min, 6-OHDA 100 µM treated cells
Procedure: The neuroblastoma SH-SY5Y cells were grown in a 6-well plate and when 80–90% confluent treated with 6-OHDA (100 µM) for 24 h. Then cells were stimulated with peptides for 2.5, 5, 7.5 and 10 min (for AKT) or 24 h (for mTOR). When needed, a 30 min pre-incubation step with LY 294002 was included before analogs and 6-OHDA addition. Stimulation was terminated by aspiration of the medium. Cells were washed 2 times with ice-cold PBS, and then 200 µL of ice-cold lysis buffer [150 mM NaCl, 20 mM Tris–HCl, glycerol, 5 mM EDTA, 0.5 mM phenylmethylsulphonylfluoride (PMSF), 10% Triton X-100, 100 mM protease inhibitors, pH 7.4] was added. Cells were incubated on ice for 15 min. Lysates were then centrifuged at 12,000×g for 10 min at 4 °C, and the supernatants were used as the total cell lysates. The protein content in the supernatants was quantified using the Bio-Rad protein assay kit. Equal amounts of protein were separated on 10% sodium dodecyl sulfate (SDS)-polyacrylamide gels and transferred to polyvinylidene difluoride membranes from (PVDF, Millipore, Cork, Ireland). Non-specific binding was blocked with tris-buffered saline Tween-20 (TBS-T: 150 mM NaCl, 20 mM Tris–HCl, 0.1% Tween 20, pH 7.5) containing 5% nonfat milk for 2 h at room temperature. Then, the membrane was incubated overnight at 4 °C with one of the following specific primary antibodies: Vinculin (1:1000 dilution; Cell Signalling Technology, Danvers, MA, USA), p-AKT (1:1000 dilution; Cell Signalling Technology, Danvers, MA, USA), AKT (1:1000 dilution; Cell Signalling Technology, Danvers, MA, USA), p-mTOR (1:1000 dilution; Cell Signalling Technology, Danvers, MA, USA), mTOR (1:1000 dilution; Cell Signalling Technology, Danvers, MA, USA). After incubation, membranes were washed six times per 5 min with TBS-T. In the next step, membranes were incubated with HRP-conjugated secondary antibodies (1:1000 dilution; Cell Signalling Technology, Danvers, MA, USA) for 1 h. Following six washes with TBS-T, the protein bands were detected with the Clarity Western ECL reagent from Bio-Rad. The band intensity was quantified by NIH ImageJ densitometric analysis. For quantification, specific phosphorylation was calculated as the ratio of phosphorylated AKT or mTOR signals to the total Akt or mTOR signal detected. Values of unstimulated samples were set to 1.0. The original immunoblots are provided in Supplementary data.

SH-SY5Y cells [4] = assay: Intracellular ROS production in 6-OHDA-treated SH-SY5Y cells; type: cell-based, human; details: 6-OHDA 100 µM
Procedure: as §1

SH-SY5Y cells [5] = assay: Mitochondrial membrane potential (JC-1) in 6-OHDA-treated SH-SY5Y cells; type: cell-based, human; details: 6-OHDA 100 µM, 6 h, JC-1
Procedure: Mitochondrial function was assessed by monitoring changes in MMP (∆Ψm) using the fluorescent probe, JC-1 fluorescence dye (5,5′,6,6′-tetrachloro-1,1′,3,3′-tetraethyl-imidacarbocyanine iodide, Molecular Probes, T3168, Eugene, Oregon, USA). The assay was performed according to the method described by Silva et al.. Briefly, SH-SY5Y cells were exposed 6 h to 6-OHDA (100 μM) in the presence or absence of peptides. After incubation, cells were washed with ice-cold PBS, and then JC-1 reagent (3 µM, 200 µL) was added for 15 min at 37 °C. Afterwards, JC-1 was removed, and cells were washed with PBS. The formation of JC-1 aggregates (490 nm of excitation and 590 nm of emission) and the monomeric form of JC-1 (490 nm of excitation and 530 nm of emission) was accompanied simultaneously in the plate reader for 30 min. Results were expressed as the ratio of the monomers/aggregates of JC-1 in the percentage of control.

## CN[C@@H]1C[C@H]2O[C@@](C)([C@@H]1OC)n1c3ccccc3c3c4c(c5c6ccccc6n2c5c31)C(=O)NC4 [STAU, Staurosporine, reference compound]
Caspase-3
  effect on Caspase-3 activity: marked increase

## lipopolysaccharide [LPS, reference compound]
[1]
  NO levels compared to the unstimulated control: exceeded 330%
[2]
  ROS level compared to the control: increased almost twice

## NCCc1cc(O)c(O)cc1O [6-OHDA, 6-hydroxydopamine, reference compound]
SH-SY5Y cells [3]
  viable cells after 6-OHDA exposure: 48.63 ± 1.25 % of viable cells
AKT
  AKT phosphorylation: blocked
SH-SY5Y cells [4]
  increase of ROS levels compared with vehicle: around 80%
SH-SY5Y cells [5]
  increase of MMP depolarization compared to vehicle: 114%
